These compounds were tested against T1, human CXCR3 (Homo sapiens, UniProt P49682) (assay: Inhibition of IP-10-induced transient Ca2+ rise in CXCR3/CHO cells). Settings: human IP-10 30 nM.
T1 construct: expressed in transfected cells
T1 sequence (P49682 1-368): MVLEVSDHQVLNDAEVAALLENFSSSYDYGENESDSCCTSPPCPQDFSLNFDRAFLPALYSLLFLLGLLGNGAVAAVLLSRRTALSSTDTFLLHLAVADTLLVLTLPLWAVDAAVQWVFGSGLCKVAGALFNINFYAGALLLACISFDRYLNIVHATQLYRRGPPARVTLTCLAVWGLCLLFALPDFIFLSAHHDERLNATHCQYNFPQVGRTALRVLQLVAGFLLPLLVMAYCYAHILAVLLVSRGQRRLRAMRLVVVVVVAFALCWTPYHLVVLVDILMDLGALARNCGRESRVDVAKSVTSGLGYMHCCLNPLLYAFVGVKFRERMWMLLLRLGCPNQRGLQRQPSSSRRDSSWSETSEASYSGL
Assay type: cell-based
Description: An Inhibitory Experiment Against the Binding of IP-10 and CXCR3 (the Activity of that Ca Ion (Ca^2+) is Raised in Transient and Induced by IP-10)
The CHO cell (CXCR3/CHO cell) which overexpresses human CXCR3 in stable was suspended with Ham's F-12 culture medium and FBS (10%), was rolled up in 96well plate to become 3.0×10^4 cell/well. After the plate was incubated for one day at 37° C., removed the cultural supernatant, added Ham's F-12 culture media (Fura-2AM (5 μM), Probenecid (2.5 mM) and HEPES (20 mM; pH7.4) were included) to 80 μl/well, incubated for one hour at 37° C. in light exclusion state. […] The transient rise of the intracellular Ca^2+ concentration induced by human IP-10 was measured by means of Ca^2+ detector for 96well (made in Hamamatsu Photonics), and the inhibitory rate (%) of the test compound was calculated by the following calculation formula.
Ec: The measured value of the Ca^2+ transient rise induced by IP-10 Ea: The measured value of the Ca^2+ transient rise induced by IP-10 when a test compound was added

Row | SMILES | IC50
1 | CCCN1C(=O)N(CCc2ccccc2)C=CC12CCN(Cc1ccc(Cl)cc1)CC2 [Example 9, 9-(4-chlorobenzyl)-3-(2-phenylethyl)-1-propyl-1,3,9-triazaspiro[5.5]undec-4-en-2-one] | 3400 nM
2 | CCCCN1CCC2(CCN(Cc3ccc(Cl)cc3)CC2)N(C2CCCC2)C1=O [Example 11, 3-butyl-9-(4-chlorobenzyl)-1-cyclopentyl-1,3,9-triazaspiro[5.5]undecan-2-one] | 2100 nM
3 | O=C1C(Cc2ccccc2)CCC2(CCN(Cc3ccc(Cl)cc3)CC2)N1CC1CC1 (stereo not shown) [Example 15, 3-benzyl-9-(4-chlorobenzyl)-1-(cyclopropylmethyl)-1,9-diazaspiro[5.5]undecan-2-one] | 1100 nM
4 | C#CCOc1ccc(CN2CCC3(CCCCC3)CC2)cc1 [Example 5, 3-[4-(prop-2-yn-1-yloxy)benzyl]-3-azaspiro[5.5]undecane] | 3200 nM

Reference: patent publication US20110052612A1, “SPIROPIPERIDINE COMPOUND AND MEDICINAL USE THEREOF” (ONO PHARMACEUTICAL CO., LTD., priority 2005, published 2011)
